System: E. coli 31
Assay: In vitro antibacterial activity, two-fold agar-plate dilution method (MIC)
Assay type: cell-based
Details: Escherichia coli, 10^6 viable cells per ml, heart infusion agar, 37° C., 20 hours, read-out: MIC (minimal inhibitory concentration)
Procedure: Now in order to show the utility of the object compound (I), the test data on MIC (minimal inhibitory concentration) of a representative compound of the compound (I) are shown in the following.
In vitro antibacterial activity was determined by the two-fold agar-plate dilution method as described below.
One loopful of an overnight culture of each test strain in Trypticase-soy broth (10^6 viable cells per ml) was streaked on heart infusion agar (HI-agar) containing graded concentrations of representative test compound, and the minimal inhibitory concentration (MIC) was expressed in terms of μg/ml after incubation at 37° C. for 20 hours.

MIC: ≤ 0.025 µg/mL
Compound: CON=C(C(=O)NC1C(=O)N2C(C(=O)[O-])=C(C[n+]3ccc4[nH]ccn43)CSC12)c1nsc(N)n1 (stereo not drawn) [Test Compound (1), 7β-[2-(5-Amino-1,2,4-thiadiazol-3-yl)-2-methoxyiminoacetamido]-3-[5-(1H-imidazo[1,2-b]pyrazolio)]methyl-3-cephem-4-carboxylate (syn isomer)]
